The values below come from patent US12673918B2, “Small molecule RPN13 inhibitors with antitumor properties” (The Johns Hopkins University, priority 2019, dated 2026).

Molecules are shown by their SMILES. Like-named read-outs stand apart in the source and are kept apart here. Where only a bound is given, the exact number is not on record here.

Data set [1] concerns PEO4. The following applies: read-out: cytotoxicity IC50 PEO4; Tables 3A/4B/4C; MTT assay. On the technique in general: Formazan colour is commonly taken as a measure of viable cells.
Data set [2] concerns PEA2. As to conditions: read-out: cytotoxicity IC50 PEA2; Tables 3A/4B/4C; MTT assay.
The subject of data set [3] is HEC-1A. Description: MTT cytotoxicity assay, HEC-1A. As to conditions: read-out: cytotoxicity IC50 HEC-1A, Tables 3A/4B/4C.
Data set [4] relates to KLE. Description: MTT cytotoxicity assay, KLE. As to conditions: read-out: cytotoxicity IC50 KLE, Tables 3A/4B/4C.
The subject of data set [5] is SKOV3.
Data set [6] has as its system TOV21G. Description: MTT cytotoxicity assay, TOV21G. As to conditions: read-out: cytotoxicity IC50 TOV21G; Tables 3A/4B/4C; MTT assay.
Data set [7] deals with CaSki. Description: MTT cytotoxicity assay, CaSki. The following applies: read-out: cytotoxicity IC50 CasKi; Tables 3A/4B/4C; MTT assay.
For data set [8], the system named is SiHa. Description: MTT cytotoxicity assay, SiHa. As to conditions: read-out: cytotoxicity IC50 SiHa; Tables 3A/4B/4C; MTT assay.
The test system of data set [9] is HeLa. Description: MTT cytotoxicity assay, HeLa. The following applies: read-out: cytotoxicity IC50 HeLa, Tables 3A/4B/4C.
The test system of data set [10] is TC1-Lu. Description: MTT cytotoxicity assay, TC1-Lu. The following applies: read-out: cytotoxicity IC50 TC1-Lu; Tables 3A/4B/4C; MTT assay.
For data set [11], the system named is UWB1.289 + BRCA1. Description: MTT cytotoxicity assay, UWB1.289 + BRCA1. Format: cell-based. The following applies: Tables 3A/4B/4C, BRCA1 + Ve.
The subject of data set [12] is BR5-Luc.
Data set [13] has as its system DLD-Seckle.
Data set [14] deals with HeLa.
Data set [15] has as its system multiple myeloma. The following applies: cited from earlier work.
For data set [16], the system named is SKOV3-TR.
For data set [17], the system named is OVCAR3.
Data set [18] has as its system CaSki.
Data set [19] has as its system BR5-FvB1.
Data set [20] has as its system RPE1-ATMKO.
In data set [21] the test system is SiHa.
Data set [22] relates to DLD-BRCA2-Ve.

Regarding `N.N.[Cl][Pt][Cl]` [CP, Cisplatin], the values for the IC50 in data set [1] and in data set [2] were 19.5 µM and 9.85 µM, respectively.
As for `C[C@@H]1/C(=C\c2ccc([N+](=O)[O-])cc2)C(=O)/C(=C/c2ccc([N+](=O)[O-])cc2)CN1C(=O)[C@@H](N)Cc1ccccc1` [RA413R], the IC50 in [3] amounted to 0.268 µM; in data set [4], 1.43 µM; in data set [5], 0.161 µM; in data set [6], 0.02 µM; in data set [7], 0.22 µM; in data set [8], 0.139 µM. The IC50 in data set [9] was 0.172 µM; in data set [10] it was 1.79 µM; in data set [11] it was below 0.02 µM.
As to `C=CC(=O)N1CC/C(=C\c2ccc(F)c([N+](=O)[O-])c2)C(=O)/C(=C/c2ccc(F)c([N+](=O)[O-])c2)C1` [VLX1570], the IC50 came to 0.0048 µM in data set [12]; 0.964 µM in data set [13]; 0.111 µM in data set [14]; 0.128 µM in data set [5]; 0.3 µM in data set [16]; 0.018 µM in data set [17]. Moreover, the IC50 in data set [18] turned out to be 0.068 µM; in data set [19], 0.25 µM; in [20], 0.963 µM; in data set [21], 0.054 µM; in [22], 8.54 µM. Further, in data set [15] (phase I patients (70)), the “dose at which anti-myeloma effects were observed” value was at least 0.6 mg/kg. Also, the adverse events result in data set [15] (two patients at the 1.2 mg/kg dose level (70)) was “severe, abrupt, and progressive respiratory insufficiency, culminating in death”.
